Patent US12410160B2 (Gilead Sciences, Inc., priority 2021, dated 2025)
Read-outs that look alike come from different tables or passages of the source.

Experiments:
HepG2 cells = test: F1P Cell-Based Assay (EC50), 13C6-fructose-1-phosphate in HepG2 cells (cell culture medium or 50% human plasma)
human KHK-C = human KHK-C (Homo sapiens (Human), UniProt P50053); test: KHK Biochemical Assay (IC50), ADP-Glo, KHK-C; details: average of at least two separate assays
Outline: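 ADP-Glo luminescence measured ADP made over a 4 h room-temperature reaction of ATP plus fructose, started after 30 min compound–enzyme pre-incubation. Buffer: 50 mM Hepes pH 7.4, 140 mM KCl, 5 mM MgCl2, 0.01% Triton-X. Enzyme was His-tagged, BL21 (DE3)-expressed, Ni-NTA-purified; compounds in 1:3 DMSO dilution series.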

[1] = Homo sapiens, HepG2, HepG2 cells, 50% human plasma, read-out: F1P 50% HP EC50
[2] = Homo sapiens, HepG2, read-out: F1P 10% FBS EC50, HepG2 cells, cell culture medium (10% FBS)
[3] = HepG2 cells, 50% human plasma, read-out: F1P 50% HP EC50
[4] = read-out: F1P 10% FBS EC50, HepG2 cells, cell culture medium (10% FBS)

human KHK-C, sequence (P50053 whole entry): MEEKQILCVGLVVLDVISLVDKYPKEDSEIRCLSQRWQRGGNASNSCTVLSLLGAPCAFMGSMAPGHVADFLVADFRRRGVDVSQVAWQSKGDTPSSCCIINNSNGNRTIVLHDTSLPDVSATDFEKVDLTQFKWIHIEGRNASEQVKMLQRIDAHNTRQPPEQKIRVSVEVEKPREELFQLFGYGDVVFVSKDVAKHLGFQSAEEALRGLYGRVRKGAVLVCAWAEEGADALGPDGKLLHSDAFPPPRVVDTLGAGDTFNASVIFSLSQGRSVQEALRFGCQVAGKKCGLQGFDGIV

Structure (SMILES) | EC50 (HepG2 cells; [1]) | EC50 (HepG2 cells; [2]) | IC50 (human KHK-C) | EC50 (HepG2 cells; [3]) | EC50 (HepG2 cells; [4]) | EC50 (HepG2 cells; Homo sapiens, HepG2, read-out: F1P 10% FBS EC50) | EC50 (HepG2 cells; Homo sapiens, HepG2, read-out: F1P 50% HP EC50) | IC50 (human KHK-C; ADP-Glo)
C[C@H]1[C@H](O)CN1c1nc(-c2ccc3c(c2)[C@H](NS(C)(=O)=O)CC3)c2c(n1)C(F)(F)CC2 (single isomer, unassigned) [Example 623] | 34.8 nM | 6.8 nM | 1.3 nM | – | – | – | – | –
C[C@H]1[C@H](O)CN1c1nc(-c2cccc(N=S(C)(=O)C3CC3)c2)c2c(n1)C(F)(F)CC2 (stereo partly drawn) [Example 667, (2S,3R)-1-[4-[3-[(cyclopropyl-methyl-oxo-λ^6-sulfanylidene)amino]phenyl]-7,7-difluoro-5,6-dihydrocyclopenta[d]pyrimidin-2-yl]-2-methyl-azetidin-3-431] | – | – | 42.3 nM | 305 nM | 61.3 nM | – | – | –
C[C@H]1CCN1c1nc2c(c(-c3ccc4c(c3)S(=N)(=O)CCO4)n1)CCC2 (stereo partly drawn) [Example 726] | 306 nM | 62.1 nM | 16.7 nM | – | – | – | – | –
C[C@H]1[C@H](O)CN1c1nc(-c2ccc(F)c(S(C)(=N)=O)c2)c2c(n1)C(F)(F)CC2 (stereo partly drawn) [Example 723, (5-(7,7-difluoro-2-((2S,3R)-3-hydroxy-2-methylazetidin-1-yl)-6,7-dihydro-5H-cyclopenta[d]pyrimidin-4-yl)-2-fluorophenyl)(imino)(methyl)-λ^6-sulfanone] | 41.3 nM | 44.3 nM | 19 nM | – | – | – | – | –
C[C@H]1CCN1c1nc(-c2ccc3c(c2)[C@H](NS(C)(=O)=O)CC3)c2c(n1)C(F)(F)CC2 [Example 608, N—((R)-6-(7,7-difluoro-2-((S)-2-methylazetidin-1-yl)-6,7-dihydro-5H-cyclopenta[d]pyrimidin-4-yl)-2,3-dihydro-1H-inden-1-yl)methanesulfonamide] | 23.2 nM | 6.8 nM | 0.7 nM | – | – | – | – | –
C[C@H]1CCN1c1nc(-c2ccc3c(c2)CNC3)c2c(n1)C(F)(F)CC2 [Example 765, 7,7-difluoro-4-isoindolin-5-yl-2-[(2S)-2-methylazetidin-1-yl]-5,6-dihydrocyclopenta[d]pyrimidine] | 53.2 nM | 15.5 nM | 7.7 nM | – | – | – | – | –
C[C@H]1[C@H](O)CN1c1nc(-c2cc(F)cc(S(C)(=N)=O)c2)c2c(n1)C(F)(F)CC2 (stereo partly drawn) [Example 724] | – | – | 25.4 nM | – | – | 166 nM | 234 nM | –
C[C@H]1[C@H](O)CN1c1nc(-c2cc(F)c3c(c2)CC[C@@H]3NS(C)(=O)=O)c2c(n1)C(F)(F)CC2 (single isomer, unassigned) [Example 526] | 114 nM | 30.8 nM | 4.9 nM | – | – | – | – | –
C[C@H]1CCN1c1nc(-c2cccc(N=S(C)(=O)C3CC3)c2)c2c(n1)C(F)(F)CC2 (stereo partly drawn) [Example 668, cyclopropyl-[3-[7,7-difluoro-2-[(2S)-2-methylazetidin-1-yl]-5,6-dihydrocyclopenta[d]pyrimidin-4-yl]phenyl]imino-methyl-oxo-λ^6-sulfane] | > 500 nM | 46.7 nM | 32.1 nM | – | – | – | – | –
CN=S(C)(=O)c1cccc(-c2nc(N3C[C@@H](O)[C@@H]3C)nc3c2CCC3(F)F)c1 (stereo partly drawn) [Example 508, (3-(7,7-difluoro-2-((2S,3R)-3-hydroxy-2-methylazetidin-1-yl)-6,7-dihydro-5H-cyclopenta[d]pyrimidin-4-yl)phenyl)(methyl)(methylimino)-λ^6-sulfanone] | 254 nM | 126 nM | 61.2 nM | – | – | – | – | –
C[C@H]1[C@H](O)CN1c1nc(-c2cc(F)c3c(c2)OC[C@H]3NS(C)(=O)=O)c2c(n1)C(F)(F)CC2 (single isomer, unassigned) [Example 812] | 40.3 nM | 11.2 nM | – | – | – | – | – | 0.7 nM
CC[C@H]1CNC(=O)c2ccc(-c3nc(N4C[C@@H](O)[C@@H]4C)nc4c3CCC4(F)F)cc2O1 (single isomer, unassigned) [Example 592] | 56.9 nM | 15.3 nM | 7.3 nM | – | – | – | – | –
C[C@H]1[C@H](O)CN1c1nc(-c2ccc3c(c2)OC[C@@H]3n2ccnn2)c2c(n1)C(F)(F)CC2 [Example 670] | 31.4 nM | 25.3 nM | 24.3 nM | – | – | – | – | –
C[C@H]1[C@H](O)CN1c1nc(-c2cccc([C@H]3CCS(=O)(=O)N3)c2)c2c(n1)C(F)(F)CC2 [Example 617] | – | – | 3.5 nM | 30.7 nM | 10.2 nM | – | – | –
